# Experimental data: patent US20100028407A1, “LAYERED BIO-ADHESIVE COMPOSITIONS AND USES THEREOF” (UNIVERSITY OF LOUISVILLE RESEARCH FOUNDATION, INC., priority 2006, published 2010)
# Tests used:
# [1] = Closure of 3 mm corneal wounds by impregnated gelatin sheets, Seidel test under rising intraocular pressure; design: species or system porcine; conditions: about 100-μm gelatin sheet (50% gelatin, 300 mM sucrose) impregnated with rose bengal 1.5 mM (light pipe 3 min), glyceraldehyde 0.2 M (no illumination) or riboflavin 0.1% (UV 370 nm); average±standard deviation
# Protocol: Gelatin blocks were prepared by the following method: Gelatin (300 Blooms, Sigma, St. Louis, Mo.) was dissolved in Minimal Essential Medium (MEM, Gibco, Grand Island, N.Y.), 300 mM sucrose was added and the solution was sterilized with gamma irradiation (2.7 Megarads). Addition of 300 mM sucrose maintained the gelatin sheets in a solid phase at temperatures below 37° C. and allowed the gelatin sheet to melt within minutes at body temperature once the gelatin sheet were placed over the wound. Gelatin blocks were prepared at a concentration of about 50% (weight/volume of MEM), which were firm enough to manipulate during the surgery by the surgeon. These gelatin blocks have rigidity of 300 blooms. Once the gelatin/sucrose solution in MEM was sterilized, the solution was poured into 35-mm tissue culture dish (Falcon #3001, Becton Dickinson, Lincoln Park, N.J.) and allowed to cool for 15 minutes to solidify at room temperature. […]
# Rose bengal was activated with an endoilluminator light pipe for 3 minutes. […] After each elevation, the treated wound was checked for the presence of any possible wound leak with the Seidel test, and the highest intraocular pressure at which the wound remained intact was recorded. This experiment was repeated three times on three different occasions and the results were calculated as average±standard deviation. […]
# [2] = TEM and SEM ultrastructure of photo-melded Bruch's membrane explants; conditions: 0.1 to 20 mM tested
# Protocol: Bruch's membrane explants were photo-melded with varying concentrations of rose bengal, ranging from 0.1 to 20 mM. Transmission electron microscopy (TEM) and scanning electron microscopy (SEM). […] At this concentration, cross linked collagen fibers twisted onto themselves and formed macro bundles. At concentrations higher that 1.5 mM, attenuation of individual collagen fibers and frequent breaks lead to the disruption of collagen framework resulting in hollow spaces at 10 and 20 mM concentrations. Starting from 0.1 mM concentration, the number of electron-dense collagen fibers increased as the concentration of rose bengal increased, possibly due to increased oxidation and subsequent better attraction of positively charged lead and osmium on the collagen fiber. At concentrations higher than 10 mM electron dense haze started to accumulate around the collagen debris.
# [3] = system: photo receptor cells (PRC), choriocapillaris (CC) and RPE cells; experiment: Live-Dead cell viability immediately after photo-melding conditions; assay type: cell-based; conditions: control PBS
# Protocol: Cellular viability of photo receptor cells (PRC), choriocapillaris (CC) and RPE cells were determined with the Live-Dead assay (Molecular Probes, Portland, Oreg.) to determine the safety of the photo-melding procedure. Human cadaver eyes were obtained from an eye bank. Anterior segments were removed and sensory retina and RPE-CC complex were dissected out. Tissue samples of 6-mm size were cut from each layer and placed in 1.5 mM and 10 mM rose bengal solution. Using similar parameters photo-melding conditions were mimicked. Viability was assessed immediately after exposure. Samples exposed to similar lighting conditions in PBS were taken as control.
# [4] = Attachment strength of photo-melded inner collagenous layer explants in a buoyancy chamber; design: species or system human; conditions: for Attachment strength: 35 mW light at 40 mm
# Protocol: Bruch's membrane explants were harvested from cadaver eyes. RPE-Bruch's membrane-Choroid complexes were dissected out under a microscope; washed with PBS three times and kept in 0.02N ammonium hydroxide for 30 minutes to lyse all cellular components. Three cycles of PBS washing followed by removal of the basal lamina mechanically as described before. Briefly, a full thickness circumferential incision was made posterior to the ora serrata and the anterior segment and vitreous were removed carefully. The posterior pole of each eye cup was inspected visually with direct and retroillumination under a dissecting microscope and globes were discarded if there was any evidence of subretinal blood, previous surgery or any extensive structural or vascular alteration of the posterior segment due to a disease process, such as proliferative diabetic retinopathy or proliferative vitreoretinopathy. The eyecups were put in carbon dioxide-free Media (Gibco) and a scleral incision was made 3 mm from the limbus and extended circumferentially. Four radial incisions were then made and the sclera was peeled away. […] The choroid-Bruch's membrane-RPE complex was then carefully peeled towards the optic disc and removed after trimming its attachment to the optic nerve. Native RPE were removed by bathing the explant with 0.02 N ammonium hydroxide in a 50-mm polystyrene Petri dish (Falcon, Becton Dickinson, Lincoln Park, N.J.) for 20 minutes at room temperature followed by washing three times in phosphate-buffered saline (PBS). The Bruch's membrane explant from the fellow eye was prepared by removing the RPE with 0.02N ammonium hydroxide as described above. The Bruch's membrane explant was then floated in CFM over a 12-18 micron thick hydrophilic polycarbonate-polyvinylpyrrolidone membrane with 0.4 micron pores (Millipore, Bedford, Mass.) with the basal lamina facing towards the membrane. The curled edges were flattened from the choroidal side with fine forceps without touching Bruch's membrane. Four percent agarose (Sigma Chemical Co., St. Louis, Mo.) was poured on the Bruch's membrane-choroid complex from the choroidal side and the tissue was kept at 4° C. for 2-3 minutes to solidify the agarose. The hydrophilic membrane was peeled off along with the basal lamina of the RPE thus exposing the bare inner collagenous layer. 6 mm circular buttons were then trephined from peripheral Bruch's membrane on a Teflon sheet and placed on 4% agarose at 37° C. in non-treated polystyrene wells of a 96 well plate (Corning Costar Corp., Cambridge, Mass.). The agarose solidified within 2-3 minutes at room temperature, thus stabilizing the Bruch's membrane explant. The wells were gently rinsed with PBS three times for 5 minutes, gamma sterilized (20,000 rads) and then stored at 4° C. Explants with exposed ICL were then cut with a 6-mm trephine and stored in sterile PBS after gamma sterilization at 20,000 rads. At the time of use ICL surface was painted with rose bengal (at concentrations as provided in FIG. 2) and two patches were faced to each other at their ICL surface. Extra fluid was removed with a Whatman #30 filter paper and the two surfaces were apposed. […] Exposure time was limited to three minutes not to exceed photo-toxicity thresholds. […] Exposed inner collagenous layers were painted with rose bengal and photo-[…] to each other by photo-exciting rose bengal with a white light source. The light intensity matched the vitrectomy endo illuminator and exposure was limited to 3 minutes to avoid retinal photo-toxicity. […] Attached grafts were kept under 0.21 mN (milliNewtons) of constant traction for 3 days to test the stability of the […] process.
# PRC, CC and RPE cells = experiment: Live-Dead cell viability after photo-melding of Bruch's membrane patch graft in eyecup followed by ambient light; assay type: cell-based, human; conditions: 1.5 mM rose bengal; 6 hours ambient light at room temperature
# Protocol: In order to assess the additive effect of subsequent ambient light on cell toxicity anterior segments of three eyecups were removed and a 20-D PMMA PC IOL was sutured into the ciliary sulcus. Sensory retina was carefully lifted off and foveal RPE cells were removed mechanically. Exposed Bruch's membrane was intentionally damaged and a 6-mm Bruch's membrane patch graft photo-melded by photo-exciting 1.5 mM of rose bengal through sensory retina. After the photo-melding procedure, the eyecup was maintained at room temperature for 6 hours exposed to ambient light. At the end of this period cellular viability was assessed with Live-Dead assay. Again, PBS treated eyes served as control.
Compound,Highest intraocular pressure at which the wound remained intact [1],Concentration at which collagen crosslinking reached its maximum [2],"PRC, CC and RPE cell viability immediately after photo-melding procedure ([3]; 1.5 mM rose bengal)","PRC, CC and RPE cell viability immediately after photo-melding procedure ([3]; 10 mM rose bengal)","Attachment strength ([4]; 1.5 mM rose bengal, 3 min)","Attachment strength ([4]; 5 mM rose bengal, 3 min)","Attachment strength ([4]; 10 mM rose bengal, 3 min)","Attachment strength ([4]; 20 mM rose bengal, 3 min)","Minimum concentration to attain strong photo-melding of human inner collagenous layer grafts ([4]; 3 min, 35 mW light)",Concentration resulting in photo-melding of exposed human inner collagenous layers ([4]; 3 min exposure to 35 mW of light at 40 millimeters),"Stability of photo-melded grafts under continuous traction ([4]; 72 hours of observation at 37° C., 0.21 mN constant traction)","PRC, CC and RPE cell viability after photo-melding and ambient light exposure (PRC, CC and RPE cells)"
O=CC(O)CO (stereo not shown) [glyceraldehyde],66.1±6.0 mmHg,–,–,–,–,–,–,–,–,–,–,–
"O=C([O-])c1c(Cl)c(Cl)c(Cl)c(Cl)c1-c1c2cc(I)c(=O)c(I)c-2oc2c(I)c([O-])c(I)cc12.[Na+].[Na+] [rose bengal, tetratodotetrachioro fluorescein disodium salt]",75.6±5.8 mmHg,1.5 mM,no adverse side effect,no adverse side effect,14.1 N/m^2,14.1 N/m^2,5.7 N/m^2,2.83 N/m^2,1.5 mM,above 0.1 mM,remained attached,did not effect the viability
